Substitutions are numbered along the chain they refer to. Values joined by “and” are separate entries in the source; they are usually repeats but may differ in a detail not shown here. Equal values may be shown once. Ends that are not written are not given here.

Test [1] addresses T1, HLA-DP4 (DPA1*01:03/DPB1*04:01) expressed on K562 cells (Homo sapiens, UniProt P04440+P20036).
T1 construct: expressed in transfected cells; host or cells: K562 (human erythroleukemic cells without endogenous MHC class II, Ii or HLA-DM), retrovirally transduced, pMX vector
T1 sequence (P20036 29-260): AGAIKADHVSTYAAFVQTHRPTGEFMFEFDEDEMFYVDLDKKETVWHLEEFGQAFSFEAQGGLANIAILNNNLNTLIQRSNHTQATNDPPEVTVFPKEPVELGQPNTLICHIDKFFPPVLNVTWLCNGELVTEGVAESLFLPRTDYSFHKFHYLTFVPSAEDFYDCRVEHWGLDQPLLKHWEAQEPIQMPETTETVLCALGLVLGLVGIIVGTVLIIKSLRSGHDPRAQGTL
T1 sequence (P04440 30-258): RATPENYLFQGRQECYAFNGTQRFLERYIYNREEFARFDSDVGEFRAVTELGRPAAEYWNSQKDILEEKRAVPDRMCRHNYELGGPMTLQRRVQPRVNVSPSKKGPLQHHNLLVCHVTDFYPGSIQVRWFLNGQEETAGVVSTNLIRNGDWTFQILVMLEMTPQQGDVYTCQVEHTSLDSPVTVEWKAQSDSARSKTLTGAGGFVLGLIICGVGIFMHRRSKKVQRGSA
Briefly: cell-based. It is filed as binding.

Test [2] deals with T2, DP4^84DEAV87 (substitution mutant of DPB1*04:01 with DPA1*01:03) expressed on K562 cells (Homo sapiens, UniProt P04440+P20036, G113D/G114E/M116V/P115A).
T2 construct: expressed in transfected cells; host or cells: K562 (human erythroleukemic cells without endogenous MHC class II, Ii or HLA-DM), retrovirally transduced, pMX vector
T2 sequence (P20036 29-260): T1 sequence (P20036 29-260)
T2 sequence (P04440 30-258 G113D/G114E/P115A/M116V): T1 sequence (P04440 30-258) with G84D, G85E, P86A, M87V
Briefly: cell-based. It is filed as binding.

By IC50 is commonly meant the concentration that gives 50% inhibition. Low values mean inhibition by little substance, high ones a need for much substance. In test [1], “NLRMKLPKPPKPVSKMRMATPLLMQALPM [N-extended CLIP]” showed a concentration for half-maximal inhibition (IC50) of 29.8 µM. Still for that read-out and setting: to “LPKPPKPVSKMRMATPLLMQALPMGALPQ [C-extended CLIP]” belongs 15.3 µM. On to LPKPPKPVSKMRMATPLLMQALPM [CLIP], for which the IC50 is 12.2 µM and 14.7 µM in test [1]; 6 µM in test [2]. For “KKLLTQHFVQENYLEY [MAGE-A3_243–258, reference compound]”, the half-maximal inhibitory concentration (IC50) in test [1] was 28.7 µM; in test [2], 33.7 µM.

Values taken from paper PMC5859192, “Mechanisms underlying the lack of endogenous processing and CLIP-mediated binding of the invariant chain by HLA-DP^84Gly” (Scientific Reports, 2018).
